# Assay results: article PMC7235778, “Methylxanthines Inhibit Primary Amine Oxidase and Monoamine Oxidase Activities of Human Adipose Tissue” (Medicines, 2020)
# Experiments:
# [1] = target: T1, primary amine oxidase (PrAO; SSAO/VAP-1) (Homo sapiens, UniProt Q16853); assay: Amplex Red H2O2 assay of methylamine and benzylamine oxidation in adipose tissue homogenate; assay type: cell-based; details: read-out: % inhibition at 1 mM
# T1 construct: gene AOC3; native enzyme in human subcutaneous adipose tissue homogenate
# T1 sequence (Q16853 1-763): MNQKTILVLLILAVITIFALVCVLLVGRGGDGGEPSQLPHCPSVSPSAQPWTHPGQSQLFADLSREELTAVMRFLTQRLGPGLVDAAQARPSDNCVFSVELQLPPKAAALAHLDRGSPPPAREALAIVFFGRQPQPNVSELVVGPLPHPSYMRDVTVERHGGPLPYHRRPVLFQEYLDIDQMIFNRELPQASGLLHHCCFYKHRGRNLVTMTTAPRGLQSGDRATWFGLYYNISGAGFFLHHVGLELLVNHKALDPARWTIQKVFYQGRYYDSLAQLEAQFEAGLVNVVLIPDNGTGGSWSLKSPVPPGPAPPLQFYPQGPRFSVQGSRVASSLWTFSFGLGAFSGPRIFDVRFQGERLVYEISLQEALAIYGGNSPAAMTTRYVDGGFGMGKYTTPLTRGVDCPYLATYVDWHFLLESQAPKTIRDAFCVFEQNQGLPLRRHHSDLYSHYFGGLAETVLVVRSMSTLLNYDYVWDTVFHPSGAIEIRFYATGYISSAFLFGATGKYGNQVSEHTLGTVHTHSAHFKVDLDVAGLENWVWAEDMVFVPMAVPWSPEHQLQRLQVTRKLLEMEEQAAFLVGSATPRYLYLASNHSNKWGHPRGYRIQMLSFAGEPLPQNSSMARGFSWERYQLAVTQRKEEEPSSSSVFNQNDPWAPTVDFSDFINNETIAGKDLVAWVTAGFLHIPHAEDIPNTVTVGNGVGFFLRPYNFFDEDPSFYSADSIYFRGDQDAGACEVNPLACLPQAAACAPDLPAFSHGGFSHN
# [2] = target: T1, primary amine oxidase (PrAO; SSAO/VAP-1); assay: Amplex Red H2O2 assay of benzylamine and methylamine oxidation in adipose tissue homogenate; assay type: cell-based; details: read-out: % inhibition at 2.5 mM
# [3] = target: T1, primary amine oxidase (PrAO; SSAO/VAP-1); assay: as above; assay type: biochemical
# [4] = target: T1, primary amine oxidase (PrAO; SSAO/VAP-1); assay: Amplex Red H2O2 assay of benzylamine oxidation in adipose tissue homogenate; Lineweaver-Burk analysis; assay type: cell-based; details: read-out: % inhibition at 2.5 mM
compound,measurement,setting,value
"CC(C)Cn1c(=O)n(C)c(=O)c2[nH]cnc21 [IBMX, 3-isobutyl-1-methylxanthine]",inhibition at 1000 µM,[1],~80%
Cn1c(=O)c2c(ncn2C)n(C)c1=O [caffeine],inhibition at 2500 µM,[2],~50%
"NNC(N)=O [Semi, semicarbazide]",Amplex Red H2O2 assay of benzylamine and methylamine oxidation in adipose tissue,[3],total inhibition at 1
Cn1cnc2c1c(=O)[nH]c(=O)n2C [theobromine],inhibition at 2500 µM,[4],54%
